In ChEMBL document CHEMBL1148776, “Structure-based optimization of protein tyrosine phosphatase 1B inhibitors: from the active site to the second phosphotyrosine binding site” (J Med Chem, 2007):

Assays:
Hepatocyte = assay: Decrease in drug uptake in rat hepatocytes in presence of verapamil; format: ADME, cell-based; set-up: scale not given: the % may be the effect or the level left
[1] = biological target: T1, Receptor-type tyrosine-protein phosphatase C (Homo sapiens, UniProt P08575); assay: Inhibition of human recombinant CD45
T1 sequence (P08575 whole entry): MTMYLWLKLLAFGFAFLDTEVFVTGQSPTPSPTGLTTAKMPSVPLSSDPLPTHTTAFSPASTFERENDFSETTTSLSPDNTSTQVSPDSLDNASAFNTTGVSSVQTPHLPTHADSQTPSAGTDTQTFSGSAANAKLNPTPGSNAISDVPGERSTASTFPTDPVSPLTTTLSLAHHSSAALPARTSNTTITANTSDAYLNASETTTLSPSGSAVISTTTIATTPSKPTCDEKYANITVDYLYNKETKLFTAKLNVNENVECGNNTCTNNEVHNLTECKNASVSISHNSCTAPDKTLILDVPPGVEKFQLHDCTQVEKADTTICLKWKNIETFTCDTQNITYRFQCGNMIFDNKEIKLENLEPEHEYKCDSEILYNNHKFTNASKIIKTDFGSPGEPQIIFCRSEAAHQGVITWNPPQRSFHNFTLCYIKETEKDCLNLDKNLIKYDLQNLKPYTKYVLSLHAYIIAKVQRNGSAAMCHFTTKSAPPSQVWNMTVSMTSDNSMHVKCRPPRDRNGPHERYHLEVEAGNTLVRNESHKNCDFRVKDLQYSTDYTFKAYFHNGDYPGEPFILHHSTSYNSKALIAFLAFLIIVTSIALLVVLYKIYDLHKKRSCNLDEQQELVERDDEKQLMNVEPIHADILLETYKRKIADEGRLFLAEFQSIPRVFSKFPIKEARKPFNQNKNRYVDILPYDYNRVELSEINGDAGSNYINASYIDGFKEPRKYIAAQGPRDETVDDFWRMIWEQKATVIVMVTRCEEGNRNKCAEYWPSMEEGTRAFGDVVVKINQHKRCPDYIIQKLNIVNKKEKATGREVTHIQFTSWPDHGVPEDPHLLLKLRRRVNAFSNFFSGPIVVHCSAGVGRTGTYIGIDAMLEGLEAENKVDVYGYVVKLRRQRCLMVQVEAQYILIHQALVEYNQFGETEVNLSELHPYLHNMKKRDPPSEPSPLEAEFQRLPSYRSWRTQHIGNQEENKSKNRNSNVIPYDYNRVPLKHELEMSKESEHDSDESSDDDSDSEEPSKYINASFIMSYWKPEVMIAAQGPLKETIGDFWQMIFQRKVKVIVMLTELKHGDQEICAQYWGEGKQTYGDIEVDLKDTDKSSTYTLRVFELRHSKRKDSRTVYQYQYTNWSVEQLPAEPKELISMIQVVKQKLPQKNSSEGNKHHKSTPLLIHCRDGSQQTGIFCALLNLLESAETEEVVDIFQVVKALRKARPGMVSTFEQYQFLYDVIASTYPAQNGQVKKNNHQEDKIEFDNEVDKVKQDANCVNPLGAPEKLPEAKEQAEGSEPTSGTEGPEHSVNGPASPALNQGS

[2] = biological target: Receptor-type tyrosine-protein phosphatase F (Homo sapiens, UniProt P10586); assay: Inhibition of human recombinant LAR
Sequence of Receptor-type tyrosine-protein phosphatase F (P10586 whole entry): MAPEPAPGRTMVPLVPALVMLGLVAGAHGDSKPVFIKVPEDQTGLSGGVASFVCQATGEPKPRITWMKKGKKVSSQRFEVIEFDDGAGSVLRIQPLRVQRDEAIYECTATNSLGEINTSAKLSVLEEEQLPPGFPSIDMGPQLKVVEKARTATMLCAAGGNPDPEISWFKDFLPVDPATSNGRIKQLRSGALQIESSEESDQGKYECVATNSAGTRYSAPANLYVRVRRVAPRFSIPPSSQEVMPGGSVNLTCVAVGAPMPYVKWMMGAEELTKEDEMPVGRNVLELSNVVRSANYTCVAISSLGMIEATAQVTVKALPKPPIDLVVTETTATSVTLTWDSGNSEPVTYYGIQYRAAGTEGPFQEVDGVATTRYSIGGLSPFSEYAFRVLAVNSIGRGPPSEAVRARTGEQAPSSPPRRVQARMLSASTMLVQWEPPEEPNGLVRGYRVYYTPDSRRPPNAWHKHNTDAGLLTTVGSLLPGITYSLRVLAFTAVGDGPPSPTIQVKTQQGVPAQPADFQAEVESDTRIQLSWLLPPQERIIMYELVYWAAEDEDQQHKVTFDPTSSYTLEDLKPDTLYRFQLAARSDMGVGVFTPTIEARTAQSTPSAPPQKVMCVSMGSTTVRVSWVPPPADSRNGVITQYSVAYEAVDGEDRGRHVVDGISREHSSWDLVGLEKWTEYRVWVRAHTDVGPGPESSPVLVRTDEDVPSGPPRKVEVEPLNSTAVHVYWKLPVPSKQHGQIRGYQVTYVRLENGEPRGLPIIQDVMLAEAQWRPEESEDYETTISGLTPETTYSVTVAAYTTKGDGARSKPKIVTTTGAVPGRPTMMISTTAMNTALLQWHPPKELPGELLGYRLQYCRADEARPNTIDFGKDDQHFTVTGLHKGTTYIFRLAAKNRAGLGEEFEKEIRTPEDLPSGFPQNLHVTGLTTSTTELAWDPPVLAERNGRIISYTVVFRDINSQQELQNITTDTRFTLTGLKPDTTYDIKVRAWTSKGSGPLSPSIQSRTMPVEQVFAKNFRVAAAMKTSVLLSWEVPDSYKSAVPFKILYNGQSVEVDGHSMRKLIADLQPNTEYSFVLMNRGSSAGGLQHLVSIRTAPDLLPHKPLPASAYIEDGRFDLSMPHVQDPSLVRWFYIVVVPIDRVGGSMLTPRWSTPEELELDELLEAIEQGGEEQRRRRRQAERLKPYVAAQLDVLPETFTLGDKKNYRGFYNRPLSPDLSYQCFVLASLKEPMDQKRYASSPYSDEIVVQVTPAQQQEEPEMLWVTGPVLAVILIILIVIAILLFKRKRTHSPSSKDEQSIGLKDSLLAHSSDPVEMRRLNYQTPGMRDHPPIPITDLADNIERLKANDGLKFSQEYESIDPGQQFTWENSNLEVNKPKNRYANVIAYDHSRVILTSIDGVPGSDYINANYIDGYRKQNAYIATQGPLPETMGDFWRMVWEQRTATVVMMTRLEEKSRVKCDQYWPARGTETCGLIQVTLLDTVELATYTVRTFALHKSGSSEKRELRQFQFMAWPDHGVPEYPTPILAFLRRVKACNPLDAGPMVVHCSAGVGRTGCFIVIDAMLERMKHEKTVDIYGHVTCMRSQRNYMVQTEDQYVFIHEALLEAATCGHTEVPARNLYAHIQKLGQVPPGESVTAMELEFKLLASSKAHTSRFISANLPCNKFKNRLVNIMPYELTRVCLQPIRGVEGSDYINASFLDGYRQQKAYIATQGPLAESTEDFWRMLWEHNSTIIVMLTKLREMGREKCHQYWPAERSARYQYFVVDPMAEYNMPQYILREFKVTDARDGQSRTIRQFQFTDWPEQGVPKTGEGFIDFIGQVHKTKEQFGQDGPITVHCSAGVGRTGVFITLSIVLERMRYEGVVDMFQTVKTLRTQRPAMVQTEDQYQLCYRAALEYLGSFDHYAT

Cytochrome P450 1A2 = biological target: T2, Cytochrome P450 1A2 (Homo sapiens, UniProt P05177); assay: Inhibition of CYP1A2; format: ADME
T2 sequence (P05177 whole entry): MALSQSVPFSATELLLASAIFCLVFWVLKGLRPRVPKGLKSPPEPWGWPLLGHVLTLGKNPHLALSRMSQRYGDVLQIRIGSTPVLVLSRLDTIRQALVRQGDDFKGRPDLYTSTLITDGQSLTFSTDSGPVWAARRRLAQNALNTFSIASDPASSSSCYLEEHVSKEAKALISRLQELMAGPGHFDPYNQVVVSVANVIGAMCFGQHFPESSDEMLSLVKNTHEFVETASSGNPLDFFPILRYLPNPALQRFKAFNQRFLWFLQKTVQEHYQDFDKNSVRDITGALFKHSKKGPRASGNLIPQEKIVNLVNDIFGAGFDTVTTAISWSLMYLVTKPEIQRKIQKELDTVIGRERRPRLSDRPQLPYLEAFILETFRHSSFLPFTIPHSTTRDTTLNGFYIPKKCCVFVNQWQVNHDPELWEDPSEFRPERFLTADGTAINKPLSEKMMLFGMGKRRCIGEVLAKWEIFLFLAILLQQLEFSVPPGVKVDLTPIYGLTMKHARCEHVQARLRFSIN

Cytochrome P450 2C19 = Cytochrome P450 2C19 (Homo sapiens, UniProt P33261); assay: Inhibition of CYP2C19; format: ADME
Sequence of Cytochrome P450 2C19 (P33261 whole entry): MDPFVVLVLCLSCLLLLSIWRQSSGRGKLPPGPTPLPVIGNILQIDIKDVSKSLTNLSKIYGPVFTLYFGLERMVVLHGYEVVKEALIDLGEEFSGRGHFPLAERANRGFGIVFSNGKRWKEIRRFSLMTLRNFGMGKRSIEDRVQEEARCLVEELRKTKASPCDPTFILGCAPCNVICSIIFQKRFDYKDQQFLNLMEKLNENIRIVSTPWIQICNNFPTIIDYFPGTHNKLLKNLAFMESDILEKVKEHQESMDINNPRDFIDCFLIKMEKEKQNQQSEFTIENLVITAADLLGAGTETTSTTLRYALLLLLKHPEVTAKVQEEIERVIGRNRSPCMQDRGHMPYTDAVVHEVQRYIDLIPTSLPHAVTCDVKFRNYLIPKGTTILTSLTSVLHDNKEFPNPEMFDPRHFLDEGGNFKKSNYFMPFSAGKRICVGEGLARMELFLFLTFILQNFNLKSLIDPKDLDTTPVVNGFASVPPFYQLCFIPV

Cytochrome P450 2C9 = Cytochrome P450 2C9 (Homo sapiens, UniProt P11712); assay: Inhibition of CYP2C9; format: ADME
Sequence of Cytochrome P450 2C9 (P11712 whole entry): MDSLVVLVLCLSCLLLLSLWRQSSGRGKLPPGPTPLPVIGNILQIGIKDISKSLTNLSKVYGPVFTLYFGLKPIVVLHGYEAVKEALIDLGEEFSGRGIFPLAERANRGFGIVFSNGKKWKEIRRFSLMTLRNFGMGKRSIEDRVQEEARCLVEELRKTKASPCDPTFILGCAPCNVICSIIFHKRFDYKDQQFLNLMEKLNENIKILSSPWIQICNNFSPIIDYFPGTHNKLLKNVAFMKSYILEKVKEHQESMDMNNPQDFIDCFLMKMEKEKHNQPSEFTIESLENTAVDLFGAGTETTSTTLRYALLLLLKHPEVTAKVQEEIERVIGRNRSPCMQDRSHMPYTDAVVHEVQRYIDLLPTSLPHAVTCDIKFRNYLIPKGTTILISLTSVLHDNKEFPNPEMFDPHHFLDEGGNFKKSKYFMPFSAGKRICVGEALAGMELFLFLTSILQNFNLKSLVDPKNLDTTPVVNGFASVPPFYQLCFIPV

Cytochrome P450 2D6 = Cytochrome P450 2D6 (Homo sapiens, UniProt P10635); assay: Inhibition of CYP2D6; format: ADME
Sequence of Cytochrome P450 2D6 (P10635 whole entry): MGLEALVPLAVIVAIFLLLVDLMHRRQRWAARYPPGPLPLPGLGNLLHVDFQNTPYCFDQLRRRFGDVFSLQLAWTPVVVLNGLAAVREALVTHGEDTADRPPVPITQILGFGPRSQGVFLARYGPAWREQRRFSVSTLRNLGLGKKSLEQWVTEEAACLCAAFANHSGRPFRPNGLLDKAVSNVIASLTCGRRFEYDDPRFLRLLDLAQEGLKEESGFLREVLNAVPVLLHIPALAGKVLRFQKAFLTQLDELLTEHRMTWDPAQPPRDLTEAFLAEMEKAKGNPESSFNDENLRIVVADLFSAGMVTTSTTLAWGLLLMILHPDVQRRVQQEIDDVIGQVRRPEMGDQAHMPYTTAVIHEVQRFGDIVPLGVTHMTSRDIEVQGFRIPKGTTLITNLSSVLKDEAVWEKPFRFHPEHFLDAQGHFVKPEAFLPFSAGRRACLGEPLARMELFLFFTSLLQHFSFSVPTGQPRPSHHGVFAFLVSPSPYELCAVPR

Cytochrome P450 3A4 = Cytochrome P450 3A4 (Homo sapiens, UniProt P08684); assay: Inhibition of CYP3A4; format: ADME
Sequence of Cytochrome P450 3A4 (P08684 whole entry): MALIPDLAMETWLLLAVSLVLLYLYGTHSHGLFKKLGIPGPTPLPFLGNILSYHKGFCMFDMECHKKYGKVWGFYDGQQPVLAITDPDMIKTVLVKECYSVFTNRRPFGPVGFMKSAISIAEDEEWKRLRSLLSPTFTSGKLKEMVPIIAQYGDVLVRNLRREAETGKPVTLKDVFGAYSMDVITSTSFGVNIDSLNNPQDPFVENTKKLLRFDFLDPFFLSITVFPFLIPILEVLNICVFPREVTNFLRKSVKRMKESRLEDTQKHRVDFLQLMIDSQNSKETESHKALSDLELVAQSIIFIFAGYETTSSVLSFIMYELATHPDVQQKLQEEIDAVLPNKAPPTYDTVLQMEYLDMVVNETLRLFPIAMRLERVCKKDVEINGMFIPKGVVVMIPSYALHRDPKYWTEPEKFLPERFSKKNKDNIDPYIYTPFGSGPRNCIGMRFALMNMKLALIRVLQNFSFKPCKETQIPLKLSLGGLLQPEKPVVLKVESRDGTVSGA

Cytochrome P450 2A6 = biological target: T3, Cytochrome P450 2A6 (Homo sapiens, UniProt P11509); assay: Inhibition of CYP2A6; format: ADME
T3 sequence (P11509 whole entry): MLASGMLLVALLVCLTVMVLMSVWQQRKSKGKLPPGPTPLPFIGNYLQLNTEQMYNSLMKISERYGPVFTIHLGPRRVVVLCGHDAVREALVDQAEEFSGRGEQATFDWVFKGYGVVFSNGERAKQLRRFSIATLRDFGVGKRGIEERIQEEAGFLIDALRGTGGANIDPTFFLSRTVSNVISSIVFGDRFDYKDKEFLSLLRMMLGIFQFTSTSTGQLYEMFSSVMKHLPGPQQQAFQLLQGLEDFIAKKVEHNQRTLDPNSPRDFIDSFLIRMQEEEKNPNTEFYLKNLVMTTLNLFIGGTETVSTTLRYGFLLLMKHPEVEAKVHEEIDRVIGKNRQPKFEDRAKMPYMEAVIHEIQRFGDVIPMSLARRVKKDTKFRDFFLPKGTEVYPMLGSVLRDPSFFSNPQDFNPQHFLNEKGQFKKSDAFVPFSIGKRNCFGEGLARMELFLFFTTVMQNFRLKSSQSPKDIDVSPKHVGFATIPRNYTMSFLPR

Cytochrome P450 2C8 = biological target: T4, Cytochrome P450 2C8 (Homo sapiens, UniProt P10632); assay: Inhibition of CYP2C8; format: ADME
T4 sequence (P10632 whole entry): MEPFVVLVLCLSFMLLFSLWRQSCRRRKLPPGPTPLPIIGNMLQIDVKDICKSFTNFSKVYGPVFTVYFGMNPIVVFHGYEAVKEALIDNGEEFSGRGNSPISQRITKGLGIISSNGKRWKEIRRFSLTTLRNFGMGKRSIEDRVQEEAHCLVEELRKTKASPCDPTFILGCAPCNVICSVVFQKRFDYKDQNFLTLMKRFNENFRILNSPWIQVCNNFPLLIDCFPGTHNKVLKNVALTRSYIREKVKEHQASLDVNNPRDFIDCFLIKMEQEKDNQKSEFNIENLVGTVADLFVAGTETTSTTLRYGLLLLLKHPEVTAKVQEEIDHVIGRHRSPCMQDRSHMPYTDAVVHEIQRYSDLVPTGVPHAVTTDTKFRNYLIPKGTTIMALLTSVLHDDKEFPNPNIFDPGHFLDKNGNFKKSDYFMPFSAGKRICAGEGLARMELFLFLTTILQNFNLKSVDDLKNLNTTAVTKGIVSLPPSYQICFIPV

[3] = Aqueous solubility at pH 7.4; format: physicochemical
[4] = Permeability coefficient across human Caco-2 cells; format: ADME, cell-based; settings: read-out: permeability
[5] = Stability in human liver microsomes; format: ADME, Microsome
[6] = Stability in mouse liver microsomes; format: ADME, Microsome
[7] = Stability in rat liver microsomes; format: ADME, Microsome
[8] = Cmax in C57/B6 mouse plasma at 10 mg/kg, ip after 1 hr; format: ADME, organism-based; set-up: dose 10 mg/kg, route intraperitoneal
[9] = Drug level in C57/B6 mouse plasma at 10 mg/kg, ip after 7 hrs; format: ADME, organism-based; set-up: dose 10 mg/kg, route intraperitoneal; settings: read-out: Drug uptake
[10] = Drug level in C57/B6 mouse liver at 10 mg/kg, ip after 1 hr; format: ADME, organism-based; set-up: dose 10 mg/kg, route intraperitoneal; settings: read-out: Drug uptake
[11] = Drug level in C57/B6 mouse liver at 10 mg/kg, ip after 7 hrs; format: ADME, organism-based; set-up: dose 10 mg/kg, route intraperitoneal; settings: read-out: Drug uptake
[12] = Drug level in C57/B6 mouse muscle at 10 mg/kg, ip after 1 hr; format: ADME, organism-based, Muscle tissue; set-up: dose 10 mg/kg, route intraperitoneal; settings: read-out: Drug uptake
[13] = Drug level in C57/B6 mouse muscle at 10 mg/kg, ip after 7 hrs; format: ADME, organism-based, Muscle tissue; set-up: dose 10 mg/kg, route intraperitoneal; settings: read-out: Drug uptake
[14] = Plasma clearance in Sprague-Dawley rat at 2 mg/kg, iv; format: ADME, organism-based; set-up: dose 2 mg/kg, route intravenous
[15] = Half life in Sprague-Dawley rat at 2 mg/kg, iv; format: ADME, organism-based; set-up: dose 2 mg/kg, route intravenous; settings: in vivo

Activity (Hepatocyte): 70%
Ki [1]: 77 µM
Ki [2]: > 500 µM
IC50 (Cytochrome P450 1A2): > 500 µM
IC50 (Cytochrome P450 2C19): > 500 µM
IC50 (Cytochrome P450 2C9): 40 µM
IC50 (Cytochrome P450 2D6): > 500 µM
IC50 (Cytochrome P450 3A4): > 500 µM
IC50 (Cytochrome P450 2A6): > 500 µM
IC50 (Cytochrome P450 2C8): > 500 µM
solubility [3]: > 100 µg/mL
Papp [4]: < 1 ×10⁻⁶ cm/s
half-life [5]: > 1 h
half-life [6]: > 1 h
half-life [7]: 0.767 h
Cmax [8]: 15200 nM
concentration at 7 h [9]: 370 nM
concentration at 1 h [10]: 6900 nM
concentration at 7 h [11]: 170 nM
concentration at 1 h [12]: 3500 nM
concentration at 7 h [13]: 260 nM
clearance [14]: 7 mL/min/kg
half-life [15]: 10 h
Structure (SMILES): O=C(O)COc1c(C(=O)O)sc(-c2cccc(NC3CCN(S(=O)(=O)Cc4ccccc4)CC3)c2)c1Br
